Test results: patent publication US4564619A, “Carbostyril derivative” (Otsuka Pharmaceutical Co., Ltd., priority 1982, dated 1986)

Experiments:
[1] = test system: collagen-induced aggregation in rabbit platelets; test: Inhibition of collagen-induced platelet aggregation in rabbit platelet rich plasma; assay type: cell-based; details: Oryctolagus cuniculus, read-out: Inhibition rate of collagen-induced aggregation; for inhibition at 100 µM (stock): Concentration of the test compound solution 10^-4 mole; for inhibition at 10 µM (stock): Concentration of the test compound solution 10^-5 mole
Outline: (§1)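 Citrated rabbit PRP adjusted to 600,000 platelets/μl with PPP, preincubated with test compound 1 min at 37° C, then challenged with ADP (solution prepared at 7.5×10^-5 M) or collagen (solution at 200 μg/ml). Aggregation followed by light transmittance; % inhibition relative to control aggregation rate.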

[2] = Change of blood pressure, intravenous administration, anesthetized dog; assay type: in vivo; set-up: unit not given here; details: femoral artery
Outline: (§2)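 Pentobarbital-anesthetized (30 mg/kg i.v.), heparinized, thoracotomized dogs of either sex, 8-13 kg, under forced breathing; compound given via femoral vein. Coronary sinus outflow measured by electromagnetic flowmeter in an extracorporeal venous circuit to the carotid; blood pressure recorded from femoral artery.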

[3] = test system: ADP-induced aggregation in rabbit platelets; test: Inhibition of ADP-induced platelet aggregation in rabbit platelet rich plasma; assay type: cell-based; details: Oryctolagus cuniculus, read-out: Inhibition rate of ADP-induced aggregation; for inhibition at 100 µM (stock): Concentration of the test compound solution 10^-4 mole; for inhibition at 10 µM (stock): Concentration of the test compound solution 10^-5 mole
Outline: as §1

[4] = test system: coronary artery; test: Increased amount of the blood flow in coronary artery, intravenous administration, anesthetized dog; assay type: in vivo
Outline: as §2

## COC(=O)C1=C(C)NC(C)=C(C(=O)OCCOc2cccc3c2CCC(=O)N3)C1c1cccc([N+](=O)[O-])c1 (centres unmarked) [Compound 2, 5-{2-[2,6-Dimethyl-5-methoxycarbonyl-4-(3-nitrophenyl)-1,4-dihydropyridin-3-carboxy]-ethoxy}-3,4-dihydrocarbostyril]
[1]
  inhibition at 100 µM (stock): 79%
  inhibition at 10 µM (stock): 17%
[2]; 10 micrograms/kg
  Change of blood pressure: -2
[2]; 30 micrograms/kg
  Change of blood pressure: -6
[2]; 100 micrograms/kg
  Change of blood pressure: -21
[2]; 300 micrograms/kg
  Change of blood pressure: -34
[3]
  inhibition at 100 µM (stock): 28%
  inhibition at 10 µM (stock): 1%
[4]; 10 micrograms/kg
  Increased amount of the blood flow in coronary artery: 3 mL/min
[4]; 30 micrograms/kg
  Increased amount of the blood flow in coronary artery: 13 mL/min
[4]; 100 micrograms/kg
  Increased amount of the blood flow in coronary artery: 38 mL/min
[4]; 300 micrograms/kg
  Increased amount of the blood flow in coronary artery: 52 mL/min

## COC(=O)C1=C(C)NC(C)=C(C(=O)OCCCOc2cccc3c2CCC(=O)N3)C1c1cccc([N+](=O)[O-])c1 (centres unmarked) [Compound 4, 5-{3-[2,6-Dimethyl-5-methoxycarbonyl-4-(3-nitrophenyl)-1,4-dihydropyridin-3-carboxy]-propoxy}-3,4-dihydrocarbostyril]
[1]
  inhibition at 100 µM (stock): 23%
  inhibition at 10 µM (stock): 11%
[2]; 3 micrograms/kg
  Change of blood pressure: -5
[2]; 10 micrograms/kg
  Change of blood pressure: -15
[2]; 30 micrograms/kg
  Change of blood pressure: -25
[2]; 100 micrograms/kg
  Change of blood pressure: -34
[2]; 300 micrograms/kg
  Change of blood pressure: -51
[3]
  inhibition at 100 µM (stock): 16%
  inhibition at 10 µM (stock): 4%
[4]; 3 micrograms/kg
  Increased amount of the blood flow in coronary artery: 3 mL/min
[4]; 10 micrograms/kg
  Increased amount of the blood flow in coronary artery: 8 mL/min
[4]; 30 micrograms/kg
  Increased amount of the blood flow in coronary artery: 22 mL/min
[4]; 100 micrograms/kg
  Increased amount of the blood flow in coronary artery: 62 mL/min
[4]; 300 micrograms/kg
  Increased amount of the blood flow in coronary artery: 90 mL/min

## COC(=O)C1=C(C)NC(C)=C(C(=O)OCCOc2ccc3c(c2)CCC(=O)N3)C1c1cccc([N+](=O)[O-])c1 (centres unmarked) [Compound 3, 6-{2-[2,6-Dimethyl-5-methoxycarbonyl-4-(3-nitrophenyl)-1,4-dihydropyridin-3-carboxy]-ethoxy}-3,4-dihydrocarbostyril]
[1]
  inhibition at 100 µM (stock): 100%
  inhibition at 10 µM (stock): 97%
[2]; 10 micrograms/kg
  Change of blood pressure: -1
[2]; 30 micrograms/kg
  Change of blood pressure: -4
[2]; 100 micrograms/kg
  Change of blood pressure: -18
[2]; 300 micrograms/kg
  Change of blood pressure: -34
[3]
  inhibition at 100 µM (stock): 100%
  inhibition at 10 µM (stock): 27%
[4]; 3 micrograms/kg
  Increased amount of the blood flow in coronary artery: 2 mL/min
[4]; 10 micrograms/kg
  Increased amount of the blood flow in coronary artery: 1 mL/min
[4]; 30 micrograms/kg
  Increased amount of the blood flow in coronary artery: 3 mL/min
[4]; 100 micrograms/kg
  Increased amount of the blood flow in coronary artery: 14 mL/min
[4]; 300 micrograms/kg
  Increased amount of the blood flow in coronary artery: 38 mL/min

## COC(=O)C1=C(C)NC(C)=C(C(=O)OCCN(C(=O)CCCOc2ccc3c(c2)CCC(=O)N3)C2CCCCC2)C1c1ccccc1[N+](=O)[O-] (centres unmarked) [Compound 32, N--{2-[1,4-Dihydro-2,6-dimethyl-5-methoxycarbonyl-4-(2-nitrophenyl)pyridin-3-carboxy]ethyl}-N--cyclohexyl-4-(3,4-dihydro-6-carbostyriloxy)-butyramide]
[1]
  inhibition at 100 µM (stock): 100%
  inhibition at 10 µM (stock): 34%
[2]; 10 micrograms/kg
  Change of blood pressure: -1
[2]; 30 micrograms/kg
  Change of blood pressure: -6
[2]; 100 micrograms/kg
  Change of blood pressure: -8
[2]; 300 micrograms/kg
  Change of blood pressure: -19
[3]
  inhibition at 100 µM (stock): 98%
  inhibition at 10 µM (stock): 25%
[4]; 100 micrograms/kg
  Increased amount of the blood flow in coronary artery: 16 mL/min
[4]; 300 micrograms/kg
  Increased amount of the blood flow in coronary artery: 55 mL/min
[4]; 1000 micrograms/kg
  Increased amount of the blood flow in coronary artery: 97 mL/min
